Patent US12559454B2, “Benzenesulfonamide derivatives and uses thereof” (2692372 Ontario, Inc., priority 2019, dated 2026)

Columns and labels:
[1] = molecular target: T1, His-tagged BTK kinase domain (Homo sapiens, UniProt Q06187); assay: Mass spectral analysis of tryptic digest of BTK kinase domain; type: binding; conditions: 10 μM BTK KD, 10 μM compound, 45 min; tryptic peptide 467-487
T1 construct: Intact His-tagged BTK kinase domain (SOURCE)(10 μM) was incubated
Procedure: A protein kinase that is inhibited by compound and/or pharmaceutically acceptable salt of the present disclosure may be subjected to mass spectral analysis to assess the formation of permanent, irreversible covalent adducts. […] Such methods identify permanent, irreversible covalent protein adducts by observing a mass peak that corresponds to the mass of a control sample plus the mass of an irreversible adduct.
After the incubation time, the reactions were quenched by acetone precipitation and the pellet was re-dissolved in 8 M Urea. […] The BTK protein band was then excised and subjected to an in-gel trypsin digest by reducing the protein (5 mM DTT), alkylating the thiols with iodoacetamide (15 mM), and then incubating the protein gel band with trypsin in a 37 C water bath (4 hours). The tryptic digestion was then quenched by the addition of trifluoroacetic acid, and peptides were removed from the gel band by sonicating with increasing amounts of acetonitrile (0%, 30%, & 60%). Peptides were then purified using C18 ziptips, spotted on the MALDI target plate with α-cyano-4-hydroxycinnamic acid as the desorption matrix (10 mg/mL in 0.10% TFA:Acetonitrile 50:50), and analyzed in reflectron mode.

BTK [2] = molecular target: T2, BTK (Homo sapiens, UniProt Q06187); assay: BTK irreversible inhibition, enzyme kinetic analysis; type: biochemical; conditions: 500 μM ATP
T2 sequence (Q06187 whole entry, species assumed, the tested form may be a part): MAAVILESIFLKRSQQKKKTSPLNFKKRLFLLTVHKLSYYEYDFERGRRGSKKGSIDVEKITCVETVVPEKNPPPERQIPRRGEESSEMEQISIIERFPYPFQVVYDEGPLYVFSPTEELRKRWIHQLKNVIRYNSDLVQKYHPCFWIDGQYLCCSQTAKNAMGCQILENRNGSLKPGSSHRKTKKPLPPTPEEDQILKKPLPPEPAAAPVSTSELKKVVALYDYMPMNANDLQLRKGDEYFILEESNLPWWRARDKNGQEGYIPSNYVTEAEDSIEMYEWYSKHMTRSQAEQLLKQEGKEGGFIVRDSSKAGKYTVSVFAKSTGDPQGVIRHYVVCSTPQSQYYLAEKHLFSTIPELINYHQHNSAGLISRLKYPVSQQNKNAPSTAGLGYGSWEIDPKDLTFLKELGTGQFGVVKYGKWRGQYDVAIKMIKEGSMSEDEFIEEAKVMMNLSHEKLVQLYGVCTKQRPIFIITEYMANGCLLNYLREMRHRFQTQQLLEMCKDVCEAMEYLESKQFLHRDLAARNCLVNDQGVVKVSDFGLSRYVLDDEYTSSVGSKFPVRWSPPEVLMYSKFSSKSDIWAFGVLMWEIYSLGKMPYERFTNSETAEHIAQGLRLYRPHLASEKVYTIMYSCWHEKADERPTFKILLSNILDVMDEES

[3] = molecular target: T3, NanoLuc-BTK fusion protein (Homo sapiens, UniProt Q06187); assay: NanoBRET target engagement assay in HEK 293 cells; type: cell-based; conditions: tracer K-5, 2 hours
T3 construct: host or cells: HEK 293 cells
T3 sequence (Q06187 whole entry, the tested form may be a part): as the sequence (Q06187 whole entry, species assumed, the tested form may be a part) above
Description: Bioluminescence Resonance Energy Transfer (BRET) is used to quantitatively measure the interaction between proteins in live cells. The NanoBRET Target Engagement (TE) Assay ((Promega, Cat #N2500)) measures the apparent binding affinity of test compounds at select kinase proteins by competitive displacement of a fluorescent NanoBRET kinase-ligand tracer (K-5), from a target kinase fused to a NanoLuc luciferase protein within intact cells. To determine whether test compounds can bind BTK, a fixed concentration of NanoBRET tracer is added to cells expressing the NanoLuc-BTK fusion protein, thereby generating a BRET reporter complex. Application of competitive test compounds results in a dose-dependent decrease in NanoBRET™ energy transfer, which allows quantitation of apparent intracellular affinity of the BTK target protein for the test compound.
In order to evaluate the binding between BTK and test compounds, an intracellular drug displacement assay was performed. […] The plates were then analyzed with a Biotek Synergy Neo2 plate reader equipped with NanoBRET 618 filters (donor 450 nm/8 nm BP and acceptor 600 nm LP). […] BRET ratios are expressed as milliBRET units (mBU), where 1 mBU corresponds to the corrected BRET ratio multiplied by 1000.

BTK [4] = molecular target: T2, BTK; assay: In vitro BTK inhibition (no preincubation); type: biochemical; conditions: Table 17
BTK [5] = molecular target: T2, BTK; assay: BTK washout experiment; type: biochemical; conditions: 6-h incubation, 50 nM BTK, 280 nM compound, 400-fold dilution
Procedure: After a 3-h incubation of 40 nM BTK in the presence of 296 nM of compound I-A1, a 400-fold dilution was performed to remove excess inhibitor.
After a 6-h incubation of 50 nM BTK in the presence of 280 nM of compound 3A-6, a 400-fold dilution was performed to remove excess inhibitor.
By way of contrast, a “washout” experiment performed with ARQ-531 gives a very different result, because this compound lacks a warhead and is known to inhibit BTK reversibly. After a 6-h incubation of 50 nM BTK in the presence of 177 nM of ARQ-531, a 400-fold dilution was performed to remove excess inhibitor. […] This indicates to one of ordinary skill in the art that the enzyme was not inhibited irreversibly during the incubation with ARQ-531.

T1 sequence (Q06187 402-655 limits assumed): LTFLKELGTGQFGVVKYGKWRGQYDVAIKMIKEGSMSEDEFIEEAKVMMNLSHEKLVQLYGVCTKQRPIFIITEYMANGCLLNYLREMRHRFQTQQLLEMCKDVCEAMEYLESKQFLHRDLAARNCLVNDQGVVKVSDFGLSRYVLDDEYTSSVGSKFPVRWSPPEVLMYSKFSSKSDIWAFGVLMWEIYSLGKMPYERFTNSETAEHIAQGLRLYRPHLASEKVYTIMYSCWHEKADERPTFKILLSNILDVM

C481 covalent modification [1]: covalent modification and ✓ | IC50 (BTK [2]; no pre-incubation, read-out: IC50 against BTK not pre-incubated): 109 nM | IC50 (BTK [2]; after 3-h incubation of 50 nM BTK with 280 nM compound, read-out: IC50 against pre-incubated BTK): 13.9 nM | IC50 [3]: 94 nM | IC50 (BTK [4]): 100 to 1000 nM | inhibition at 0.28 µM (BTK [5]; read-out: enzyme inhibited irreversibly): 87% | remaining activity at 0.28 µM (BTK [5]; relative to DMSO, read-out: residual activity of the enzyme): 13%
SMILES: COc1c(F)c(F)c(F)c(F)c1S(=O)(=O)NCCn1nc(-c2ccc(Oc3ccccc3)cc2)c2c(N)ncnc21 [Compound 3A-6, N-(2-(4-amino-3-(4-phenoxyphenyl)-1H-pyrazolo[3,4-d]pyrimidin-1-yl)ethyl)-2,3,4,5-tetrafluoro-6-methoxybenzenesulfonamide]
